According to US20230167073A1 (Teijin Pharma Limited, priority 2020, published 2023):

What follows are compounds tested against T1, Human TRPC6 (Homo sapiens, UniProt Q9Y210) (assay: Evaluation of TRPC6 channel inhibitory activity (1), FLIPR Calcium 5 Assay Kit, OAG stimulation (Compound Nos. 1-1293)). Conditions: Human TRPC6 stably-expressing cells, OAG 30 μM, FLIPR Calcium 5 Assay Kit; read-out: Inhibitory activity (pIC50 class) (converted).
T1 construct: expressed in transfected cells
T1 sequence (Q9Y210 1-931): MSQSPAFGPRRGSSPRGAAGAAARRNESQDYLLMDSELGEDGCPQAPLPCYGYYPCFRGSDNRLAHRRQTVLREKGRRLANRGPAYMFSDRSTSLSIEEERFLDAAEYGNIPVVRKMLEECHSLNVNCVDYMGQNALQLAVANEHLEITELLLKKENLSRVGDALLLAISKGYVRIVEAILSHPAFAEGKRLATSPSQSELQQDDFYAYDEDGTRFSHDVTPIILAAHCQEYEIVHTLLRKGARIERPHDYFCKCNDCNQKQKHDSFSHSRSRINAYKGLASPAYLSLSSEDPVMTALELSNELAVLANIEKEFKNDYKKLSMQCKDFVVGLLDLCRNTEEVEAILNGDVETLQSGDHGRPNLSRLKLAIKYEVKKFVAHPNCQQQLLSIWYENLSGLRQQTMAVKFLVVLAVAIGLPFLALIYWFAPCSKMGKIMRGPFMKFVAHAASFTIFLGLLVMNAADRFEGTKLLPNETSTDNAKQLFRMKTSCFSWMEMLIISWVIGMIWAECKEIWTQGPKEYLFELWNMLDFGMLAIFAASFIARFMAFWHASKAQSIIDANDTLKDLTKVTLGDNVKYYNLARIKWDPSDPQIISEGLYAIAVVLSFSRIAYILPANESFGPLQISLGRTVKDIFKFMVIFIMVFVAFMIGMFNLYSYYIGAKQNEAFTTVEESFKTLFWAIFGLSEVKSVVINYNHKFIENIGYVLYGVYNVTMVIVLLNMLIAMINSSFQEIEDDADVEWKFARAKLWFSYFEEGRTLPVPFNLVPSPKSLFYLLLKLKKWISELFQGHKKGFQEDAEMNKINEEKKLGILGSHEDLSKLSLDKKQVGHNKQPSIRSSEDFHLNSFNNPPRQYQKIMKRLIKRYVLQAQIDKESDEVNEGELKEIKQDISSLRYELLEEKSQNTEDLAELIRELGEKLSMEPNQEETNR
Type: cell-based
How it was run: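 The FLIPR signal is maximum fluorescence after 30 μM OAG minus minimum before compound, measured in a human TRPC6 stable line loaded with Calcium 5 dye. Compounds were preincubated 20 min. pIC50 came from four-parameter logistic fitting of inhibition rates and is given as symbol ranges.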
In the case of Cn1nc(C2CC2)cc1Oc1cc(C#N)ccc1-c1nccc(CN)n1 [compound 680, 4-[4-(aminomethyl)pyrimidin-2-yl]-3-(5-cyclopropyl-2-methylpyrazol-3-yl)oxybenzonitrile], the IC50 is reported as greater than 1000 nM. Cc1cc(Oc2cc(C#N)ccc2-c2nccc(CN)n2)cc(N2CCOCC2)n1 [compound 681, 4-[4-(aminomethyl)pyrimidin-2-yl]-3-(2-methyl-6-morpholin-4-ylpyridin-4-yl)oxybenzonitrile] was tested, and the IC50 was greater than 1000 nM. For Cn1nc(-c2ccccn2)cc1Oc1cc(C#N)ccc1-c1nccc(CN)n1 [compound 682, 4-[4-(aminomethyl)pyrimidin-2-yl]-3-(2-methyl-5-pyridin-2-ylpyrazol-3-yl)oxybenzonitrile], the IC50 was 10 to 1000 nM. Work on Cn1nc2c(c1Oc1cc(C#N)ccc1-c1cc(CCN)ccn1)CCC2 [compound 683, 4-[4-(2-aminoethyl)pyridin-2-yl]-3-[(2-methyl-5,6-dihydro-4H-cyclopenta[c]pyrazol-3-yl)oxy]benzonitrile] yielded an IC50 greater than 1000 nM. Cn1nc2c(c1Oc1cc(C#N)ccc1-c1ncc(CN)cn1)CCCC2 [compound 684, 4-[5-(aminomethyl)pyrimidin-2-yl]-3-[(2-methyl-4,5.6,7-tetrahydroindazol-3-yl)oxy]benzonitrile] gave an IC50 greater than 1000 nM. Cn1nc2c(c1Oc1cc(C#N)ccc1-c1nccc(CN)n1)CCCC2 [compound 685, 4-[4-(aminomethyl)pyrimidin-2-yl]-3-[(2-methyl-4,5,6,7-tetrahydroindazol-3-yl)oxy]benzonitrile] gave an IC50 greater than 1000 nM. Cc1cc(Oc2cc(C#N)ccc2-c2ncc(CCN)cn2)cc(-c2ncccn2)n1 [compound 686, 4-[5-(2-aminoethyl)pyrimidin-2-yl]-3-(2-methyl-6-pyrimidin-2-ylpyridin-4-yl)oxybenzonitrile] showed an IC50 greater than 1000 nM. Compound Cc1cc(Oc2cc(C#N)ccc2-c2ncc(CCN)cn2)cc(-c2nccn2C)n1 [compound 687, 4-[5-(2-aminoethyl)pyrimidin-2-yl]-3-[2-methyl-6-(1-methylimidazol-2-yl)pyridin-4-yl]oxybenzonitrile] has an IC50 greater than 1000 nM. Cc1cc(Oc2cc(C#N)ccc2-c2ncc([C@H](O)CN)cn2)cc(-c2ccccn2)n1 [compound 688, 4-[5-[(1S)-2-amino-1-hydroxyethyl]pyrimidin-2-yl]-3-(2-methyl-6-pyridin-2-ylpyridin-4-yl)oxybenzonitrile] was tested, and the IC50 was 10 to 1000 nM. With Cc1cc(Oc2cc(C#N)ccc2-c2ccc([C@H](O)CN)cn2)cc(-c2nccs2)n1 [compound 689, 4-[5-[(1S)-2-amino-1-hydroxyethyl]pyridin-2-yl]-3-[2-methyl-6-(1,3-thiazol-2-yl)pyridin-4-yl]oxybenzonitrile] the IC50 was 10 to 1000 nM. Work on Cc1cc(Oc2cc(C#N)ccc2-c2ccc([C@H](O)CN)cn2)cc(-c2ncco2)n1 [compound 690, 4-[5-[(1S)-2-amino-1-hydroxyethyl]pyridin-2-yl]-3-[2-methyl-6-(1,3-oxazol-2-yl)pyridin-4-yl]oxybenzonitrile] yielded an IC50 of 10 to 1000 nM. Compound Cc1cc(Oc2cc(C#N)ccc2-c2ccc([C@H](O)CN)cn2)cc(-c2ccccn2)n1 [compound 691, 4-[5-[(1S)-2-amino-1-hydroxyethyl]pyridin-2-yl]-3-(2-methyl-6-pyridin-2-ylpyridin-4-yl)oxybenzonitrile] has an IC50 of less than 10 nM. With Cc1cc(Oc2cc(C#N)ccc2-c2ccc([C@H](O)CN)cn2)cc(-c2ncccn2)n1 [compound 692, 4-[5-[(1S)-2-amino-1-hydroxyethyl]pyridin-2-yl]-3-(2-methyl-6-pyrimidin-2-ylpyridin-4-yl)oxybenzonitrile] the IC50 was greater than 1000 nM. For Cc1cc(Oc2cc(C#N)ccc2-c2ccc([C@H](O)CN)cn2)cc(-c2cnccn2)n1 [compound 693, 4-[5-[(1S)-2-amino-1-hydroxyethyl]pyridin-2-yl]-3-(2-methyl-6-pyrazin-2-ylpyridin-4-yl)oxybenzonitrile], the IC50 was 10 to 1000 nM. In the case of Cc1cc(Oc2cc(C#N)ccc2-c2ccc([C@H](O)CN)cn2)cc(-c2nc(C)cs2)n1 [compound 694, 4-[5-[(1S)-2-amino-1-hydroxyethyl]pyridin-2-yl]-3-[2-methyl-6-(4-methyl-1,3-thiazol-2-yl)pyridin-4-yl]oxybenzonitrile], the IC50 is reported as 10 to 1000 nM. With N#Cc1ccc(-c2ccc(CN)cn2)c(Oc2cnnc(C3CC3)c2)c1 [compound 695, 4-[5-(aminomethyl)pyridin-2-yl]-3-(6-cyclopropylpyridazin-4-yl)oxybenzonitrile] the IC50 was less than 10 nM. N#Cc1ccc(-c2ccc(CN)cn2)c(Oc2cnnc(N3CCCC3)c2)c1 [compound 696, 4-[5-(aminomethyl)pyridin-2-yl]-3-(6-pyrrolidin-1-ylpyridazin-4-yl)oxybenzonitrile] gave an IC50 of less than 10 nM. Compound N#Cc1ccc(-c2ccc(CN)cn2)c(Oc2cnnc(N3CCCCC3)c2)c1 [compound 697, 4-[5-(aminomethyl)pyridin-2-yl]-3-(6-piperidin-1-ylpyridazin-4-yl)oxybenzonitrile] has an IC50 of less than 10 nM. CN(C)c1cc(Oc2cc(C#N)ccc2-c2ccc(CN)cn2)cnn1 [compound 698, 4-[5-(aminomethyl)pyridin-2-yl]-3-[6-(dimethylamino)pyridazin-4-yl]oxybenzonitrile] gave an IC50 of 10 to 1000 nM. N#Cc1ccc(-c2ncc(CN)cn2)c(Oc2nnc(-c3ccccn3)s2)c1 [compound 699, 4-[5-(aminomethyl)pyrimidin-2-yl]-3-[(5-pyridin-2-yl-1,3,4-thiadiazol-2-yl)oxy]benzonitrile] gave an IC50 greater than 1000 nM. For N#Cc1ccc(-c2ncc(CN)cn2)c(Oc2nnc(Br)s2)c1 [compound 700, 4-[5-(aminomethyl)pyrimidin-2-yl]-3-[(5-bromo-1,3,4-thiadiazol-2-yl)oxy]benzonitrile], the IC50 was greater than 1000 nM. For Cc1cc(Oc2cc(C#N)ccc2-c2ncc(C(C)N)cn2)cc(N2CCOCC2)n1 (centres unmarked) [compound 701], the IC50 was less than 10 nM. In the case of CC(N)c1cnc(-c2ccc(C#N)cc2Oc2cc(-c3ccccn3)nn2C)nc1 (centres unmarked) [compound 702, 4-[5-(1-aminoethyl)pyrimidin-2-yl]-3-(2-methyl-5-pyridin-2-ylpyrazol-3-yl)oxybenzonitrile], the IC50 is reported as less than 10 nM. Work on N#Cc1ccc(-c2ncc(CCN)cn2)c(Oc2nnc(-c3ccccn3)s2)c1 [compound 703, 4-[5-(2-aminoethyl)pyrimidin-2-yl]-3-[(5-pyridin-2-yl-1,3,4-thiadiazol-2-yl)oxy]benzonitrile] yielded an IC50 of 10 to 1000 nM. Work on N#Cc1ccc(-c2ncc(CCN)cn2)c(Oc2nnc(N3CCCCC3)s2)c1 [compound 704, 4-[5-(2-aminoethyl)pyrimidin-2-yl]-3-[(5-piperidin-1-yl-1,3,4-thiadiazol-2-yl)oxy]benzonitrile] yielded an IC50 of less than 10 nM. With N#Cc1ccc(-c2ncc(CN)cn2)c(Oc2nnc(-c3ccccc3)s2)c1 [compound 705, 4-[5-(aminomethyl)pyrimidin-2-yl]-3-[(5-phenyl-1,3,4-thiadiazol-2-yl)oxy]benzonitrile] the IC50 was 10 to 1000 nM. Work on N#Cc1ccc(-c2ncc(CCN)cn2)c(Oc2nnc(-c3ccccc3)s2)c1 [compound 706, 4-[5-(2-aminoethyl)pyrimidin-2-yl]-3-[(5-phenyl-1,3,4-thiadiazol-2-yl)oxy]benzonitrile] yielded an IC50 of less than 10 nM. In the case of N#Cc1ccc(-c2ncc(CN)cn2)c(Oc2nnc(N3CCCCC3)s2)c1 [compound 707, 4-[5-(aminomethyl)pyrimidin-2-yl]-3-[(5-piperidin-1-yl-1,3,4-thiadiazol-2-yl)oxy]benzonitrile], the IC50 is reported as 10 to 1000 nM. With Cc1nc(Oc2cc(C#N)ccc2-c2ncc(CN)cn2)cc(N2CCO[C@@H](C)C2)n1 [compound 708, 4-[5-(aminomethyl)pyrimidin-2-yl]-3-[2-methyl-6-[(2S)-2-methylmorpholin-4-yl]pyrimidin-4-yl]oxybenzonitrile] the IC50 was less than 10 nM. Work on Cc1nc(Oc2cc(C#N)ccc2-c2ncc(CN)cn2)cc(N2C[C@@H](C)O[C@@H](C)C2)n1 [compound 709, 4-[5-(aminomethyl)pyrimidin-2-yl]-3-[6-[(2R,6S)-2,6-dimethylmorpholin-4-yl]-2-methylpyrimidin-4-yl]oxybenzonitrile] yielded an IC50 of 10 to 1000 nM. Work on Cc1nc(Oc2cc(C#N)ccc2-c2ncc(CN)cn2)cc(N2CCOC(C)(C)C2)n1 [compound 710, 4-[5-(aminomethyl)pyrimidin-2-yl]-3-[6-(2,2-dimethylmorpholin-4-yl)-2-methylpyrimidin-4-yl]oxybenzonitrile] yielded an IC50 of 10 to 1000 nM. For CC(C)c1cc(Oc2cc(C#N)ccc2-c2ccc(CN)n3ccnc23)n(C)n1 [compound 711, 4-[5-(aminomethyl)imidazo[1,2-a]pyridin-8-yl]-3-(2-methyl-5-propan-2-ylpyrazol-3-yl)oxybenzonitrile], the IC50 was less than 10 nM.
